Data on 27 compounds can be found in patent publication US8299056B2 (Signal Pharmaceuticals, LLC, priority 2008, dated 2012).

Structures are written as SMILES.

The first assay has as its target T1, Syk (Homo sapiens, UniProt P43405).
T1 construct: purchased Carna Biosciences
The experiment in a line: Syk HTRF assay. Format: biochemical. Conditions: IC50 activity level, read-out: Activity Level. As for the experimental part: Test compounds were prepared at a concentration of 1.5 mM in DMSO followed by 3-fold dilutions in Greiner […] polypropylene plates. A 1:4 dilution of compounds by 8 μL/well transfer from the polypropylene plates to 24 μL/well Assay Buffer in Costar 3710 384 well black plates was then performed. Kinases (13 μL/well) or Assay Buffer only (background controls; 50 mM HEPES pH 7.6, 1 mM DTT, 10 mM MgCl2, 0.01% Triton X100, 0.01% BSA and 0.1 mM EDTA) were added to Costar 3710 384-well black plates for the HTRF assays (Carna Biosciences) and compound was added from the 1:4 dilution plate. Syk start mix (87.5 μM ATP, 80 nM Substrate Peptide (American Peptide Company 332722) was added and the mixture was incubated at room temperature for 1 hour. Syk Stop Solution (120 mM EDTA in dilution buffer) was then added to the Syk HTRF assay plate and incubated at room temperature on a shaker for 2 minutes. Syk Antibody Mix (4.86 μg/mL DyLight 647 Streptavidin (Pierce 21824); 1 μg/mL Lance Eu-Anti-Phosphotyrosine (PerkinElmer AD0069)) was added to the Syk HTRF assay plate and the mixture was further incubated at room temperature for >4 h. Time resolved fluorescence was read in assay plates on a PerkinElmer EnVision. HTRF assays were performed using 320 nm excitation, 60 μs delay, 665 nm and 615 nm emission. Data was expressed by division of 665 nm by 615 nm emissions.
For orientation: In TR-FRET formats the signal depends on donor and acceptor labels being close together.
As for `CC1(C)C(=O)Nc2cc(Nc3nc4cccc(CC5CCOC5)n4n3)ccc21` (single isomer, unassigned; enantiomer 1) [Example 561, 3,3-dimethyl-6-(5-((tetrahydrofuran-3-yl)methyl)-[1,2,4]triazolo[1,5-a]pyridin-2-ylamino)indolin-2-one (enantiomer 1)], the IC50 fell in the range of 0.005 to 250 nM.
Take `CC1(C)C(=O)Nc2cc(Nc3nc4cccc(CC5CCOC5)n4n3)ccc21` (single isomer, unassigned; enantiomer 2) [Example 558, 3,3-dimethyl-6-(5-((tetrahydrofuran-3-yl)methyl)-[1,2,4]triazolo[1,5-a]pyridin-2-ylamino)indolin-2-one (enantiomer 2)]: the IC50 was in the range of 0.005 to 250 nM.

The assay is the same for the next values; noted with them: activity levels A-D, read-out: Activity Level (IC50 in the Syk HTRF assay).
In the case of `O=C1NCCC1NCc1cccc2nc(Nc3ccc(C(F)(F)F)cc3)nn12` (racemic) [Example 207, (±)-3-((2-(4-(trifluoromethyl)phenylamino)-[1,2,4]triazolo[1,5-a]pyridin-5-yl)methylamino)pyrrolidin-2-one], the IC50 lay within 1000 to 10000 nM.
Consider `CC(C)C1CNC(=O)CN1Cc1cccc2nc(Nc3ccc(C(F)(F)F)cc3)nn12` (racemic) [Example 230, (±)-5-isopropyl-4-((2-(4-(trifluoromethyl)phenylamino)-[1,2,4]triazolo[1,5-a]pyridin-5-yl)methyl)piperazin-2-one], for which the IC50 was 1000 to 10000 nM.
As for `CC(NCc1cccc2nc(Nc3ccc(C(F)(F)F)cc3)nn12)C(N)=O` (racemic) [Example 233, (±)-2-((2-(4-(trifluoromethyl)phenylamino)-[1,2,4]triazolo[1,5-a]pyridin-5-yl)methylamino)propanamide], the IC50 fell in the range of 500 to 1000 nM.
For the compound `O[C@H]1CCC[C@H](Nc2cccc3nc(Nc4ccc(C(F)(F)F)cc4)nn23)C1` (racemic) [Example 248, (±)-trans-3-(2-(4-(trifluoromethyl)phenylamino)-[1,2,4]triazolo[1,5-a]pyridin-5-ylamino)cyclohexanol], the IC50 fell in the range of 0.005 to 250 nM.
On the same count and under the same terms, the value for `O[C@H]1CCC[C@H](Nc2cccc3nc(Nc4ccc(C(F)(F)F)cc4)nn23)C1` (racemic) [Example 373, (±)trans-3-(2-(4-(trifluoromethyl)phenylamino)-[1,2,4]triazolo[1,5-a]pyridin-5-ylamino)cyclohexanol] was 500 to 1000 nM.
Regarding `CNC(=O)c1ccc(Nc2nc3cccc(CC4CCC(O)C4)n3n2)cc1` (single isomer, unassigned; diastereomer 1) [Example 232, 4-(5-((3-hydroxycyclopentyl)methyl)-[1,2,4]triazolo[1,5-a]pyridin-2-ylamino)-N-methylbenzamide (diastereomer 1)], the IC50 fell in the range of 1000 to 10000 nM.
On the same count and under the same terms, the value for `CNC(=O)c1ccc(Nc2nc3cccc(C[C@H]4CC[C@@H](O)C4)n3n2)cc1` (single isomer, unassigned; diastereomer 2) [Example 214, 4-(5-((3-hydroxycyclopentyl)methyl)-[1,2,4]triazolo[1,5-a]pyrridin-2-ylamino)-N-methylbenzamide (diastereomer 2)] was 1000 to 10000 nM; that for `O[C@@H]1CCC[C@H](Nc2cccc3nc(Nc4ccc(C(F)(F)F)cc4)nn23)C1` (single isomer, unassigned; enantiomer 1) [Example 223, cis-3-(2-(4-(trifluoromethyl)phenylamino)-[1,2,4]triazolo[1,5-a]pyridin-5-ylamino)cyclohexanol (enantiomer 1)] was 1000 to 10000 nM; that for `O[C@@H]1CCC[C@@H](Nc2cccc3nc(Nc4ccc(C(F)(F)F)cc4)nn23)C1` (single isomer, unassigned; enantiomer 1) [Example 225, trans-3-(2-(4-(trifluoromethyl)phenylamino)-[1,2,4]triazolo[1,5-a]pyridin-5-ylamino)cyclohexanol (enantiomer 1)] was 0.005 to 250 nM.
`O[C@@H]1CCC[C@@H](Nc2cccc3nc(Nc4ccc(C(F)(F)F)cc4)nn23)C1` (single isomer, unassigned; enantiomer 2) [Example 224, cis-3-(2-(4-(trifluoromethyl)phenylamino)-[1,2,4]triazolo[1,5-a]pyridin-5-ylamino)cyclohexanol (enantiomer 2)]: the IC50 was in the range of 1000 to 10000 nM.
As for `O[C@H]1CCC[C@H](Nc2cccc3nc(Nc4ccc(C(F)(F)F)cc4)nn23)C1` (single isomer, unassigned; enantiomer 2) [Example 226, trans-3-(2-(4-(trifluoromethyl)(phenylamino)-[1,2,4]triazolo[1,5-a]pyridin-5-ylamino)cyclohexanol (enantiomer 2)], the IC50 was in the range of 500 to 1000 nM.
Still for that read-out and setting: the value for `Cc1n[nH]c2cc(Nc3nc4cccc(N[C@H]5CC[C@H](O)CC5)n4n3)ccc12` (stereo in doubt) [Example 201, trans-4-(2-(3-methyl-1H-indazol-6-ylamino)-[1,2,4]triazolo[1,5-a]pyridin-5-ylamino)cyclohexanol] was 0.005 to 250 nM; that for `Cc1n[nH]c2cc(Nc3nc4cccc(N[C@H]5CCCC5O)n4n3)ccc12` (stereo in doubt) [Example 212, (1S,2S)-2-(2-(3-methyl-1H-indazol-6-ylamino)-[1,2,4]triazolo[1,5-a]pyridin-5-ylamino)cyclopentanol] was 0.005 to 250 nM.
On the same count and under the same terms, the same measure for `Cc1n[nH]c2cc(Nc3nc4cccc(C[C@H]5CC[C@H](O)CC5)n4n3)ccc12` (stereo in doubt) [Example 240, trans-4-((2-(3-methyl-1H-indazol-6-ylamino)-[1,2,4]triazolo[1,5-a]pyridin-5-yl)methyl)cyclohexanol]: 0.005 to 250 nM.
On the same count and under the same terms, the same measure for `CNC(=O)c1ccc(Nc2nc3cccc(N4CCC(O)C4)n3n2)cc1` (stereo in doubt) [Example 250, (R)-4-(5-(3-hydroxypyrrolidin-1-yl)-[1,2,4]triazolo[1,5-a]pyridin-2-ylamino)-N-methylbenzamide]: 500 to 1000 nM.

Staying with this assay, now noted: read-out: Activity Level (Syk HTRF assay IC50).
Regarding `Cc1n[nH]c2cc(Nc3nc4cccc(O[C@@H]5COC[C@@H]5O)n4n3)ccc12` (racemic) [Example 165, (±)-cis-4-(2-(3-methyl-1H-indazol-6-ylamino)-[1,2,4]triazolo[1,5-a]pyridin-5-yloxy)tetrahydrofuran-3-ol], the IC50 was 250 to 500 nM.
On to `Cc1n[nH]c2cc(Nc3nc4cccc(NC5COCC5O)n4n3)ccc12` (racemic) [Example 166, (±)-trans-4-(2-(3-methyl-1H-indazol-6-ylamino)-[1,2,4]-triazolo[1,5-a]pyridin-5-ylamino)tetrahydrofuran-3-ol], for which the IC50 was in the range of 0.005 to 250 nM.
Consider `CC1(C)C(=O)Nc2cc(Nc3nc4cccc(OC5CCOC5)n4n3)ccc21` (stereo in doubt) [Example 134, (R)-3,3-dimethyl-6-(5-(tetrahydrofuran-3-yloxy)-[1,2,4]triazolo[1,5-a]pyridin-2-ylamino)indolin-2-one], for which the IC50 lay within 0.005 to 250 nM.
Take `CC1(C)NC(=O)c2cc(Nc3nc4cccc(N[C@H]5CC[C@H](O)CC5)n4n3)ccc21` (stereo in doubt) [Example 137, trans-6-(5-(4-hydroxycyclohexylamino)-[1,2,4]triazolo[1,5-a]pyridin-2-ylamino)-3,3-dimethylisoindolin-1-one]: the IC50 lay within 500 to 1000 nM.
With `CN1C(=O)C(C)(C)c2ccc(Nc3nc4cccc(N[C@H]5CC[C@H](O)CC5)n4n3)cc21` (stereo in doubt) [Example 146, trans-6-(5-(4-hydroxycyclohexylamino)-[1,2,4]triazolo[1,5-a]pyridin-2-ylamino)-1,3,3-trimethylindolin-2-one], the IC50 fell in the range of 0.005 to 250 nM.
On to `CC1(C)C(=O)Nc2cc(Nc3nc4cccc(NC5CCCNC5)n4n3)ccc21` (stereo in doubt) [Example 154, (S)-3,3-dimethyl-6-(5-(piperidin-3-ylamino)-[1,2,4]triazolo[1,5-a]pyridin-2-ylamino)indolin-2-one], for which the IC50 fell in the range of 0.005 to 250 nM.
In the case of `Cc1n[nH]c2cc(Nc3nc4cccc(NC5CCOC5)n4n3)ccc12` (stereo in doubt) [Example 167, (R)-N^2-(3-methyl-1H-indazol-6-yl)-N^5-(tetrahydrofuran-3-yl)-[1,2,4]triazolo[1,5-a]pyridin-2,5-diamine], the IC50 is 0.005 to 250 nM.
Same read-out and setting: the same measure for `CC1(C)C(=O)Nc2cc(Nc3nc4cccc(N[C@H]5CC[C@H](O)CC5)n4n3)ccc21` (stereo in doubt) [Example 175, trans-6-(5-(4-hydroxycyclohexylamino)-[1,2,4]triazolo[1,5-a]pyridin-2-ylamino)-3,3-dimethylindolin-2-one]: 0.005 to 250 nM.
On to `Cc1n[nH]c2cc(Nc3nc4cccc(NC[C@@H]5CCC(O)C5)n4n3)ccc12` (stereo in doubt) [Example 179, (1R,3R)-3-((2-(3-methyl-1H-indazol-6-ylamino)-[1,2,4]triazolo[1,5-a]pyridin-5-ylamino)methyl)cyclopentanol], for which the IC50 is 0.005 to 250 nM.
Regarding `Cc1n[nH]c2cc(Nc3nc4cccc(NC[C@H]5CCC(O)C5)n4n3)ccc12` (stereo in doubt) [Example 180, (1R,3S)-3-((2-(3-methyl-1H-indazol-6-ylamino)-[1,2,4]triazolo[1,5-a]pyridin-5-ylamino)methyl)cyclopentanol], the IC50 lay in the range of 0.005 to 250 nM.
